For orientation: IC50 means the concentration that inhibits the measured activity by half.

For 29 compounds, IC50 results are on record in patent US20100056524A1, “Compound” (priority 2008, published 2010).

Structures can show the parent of a compound that is named as a salt. A value given as a limit tells only on which side of the number the result lay.

The target of this assay is T1, TBK1 (Homo sapiens, UniProt Q9UHD2).
T1 construct: All protein kinases were of human origin and encoded full length proteins, unless indicated otherwise; His6; made in house; host or cells: insect Sf21 cells
T1 sequence (Q9UHD2 1-729): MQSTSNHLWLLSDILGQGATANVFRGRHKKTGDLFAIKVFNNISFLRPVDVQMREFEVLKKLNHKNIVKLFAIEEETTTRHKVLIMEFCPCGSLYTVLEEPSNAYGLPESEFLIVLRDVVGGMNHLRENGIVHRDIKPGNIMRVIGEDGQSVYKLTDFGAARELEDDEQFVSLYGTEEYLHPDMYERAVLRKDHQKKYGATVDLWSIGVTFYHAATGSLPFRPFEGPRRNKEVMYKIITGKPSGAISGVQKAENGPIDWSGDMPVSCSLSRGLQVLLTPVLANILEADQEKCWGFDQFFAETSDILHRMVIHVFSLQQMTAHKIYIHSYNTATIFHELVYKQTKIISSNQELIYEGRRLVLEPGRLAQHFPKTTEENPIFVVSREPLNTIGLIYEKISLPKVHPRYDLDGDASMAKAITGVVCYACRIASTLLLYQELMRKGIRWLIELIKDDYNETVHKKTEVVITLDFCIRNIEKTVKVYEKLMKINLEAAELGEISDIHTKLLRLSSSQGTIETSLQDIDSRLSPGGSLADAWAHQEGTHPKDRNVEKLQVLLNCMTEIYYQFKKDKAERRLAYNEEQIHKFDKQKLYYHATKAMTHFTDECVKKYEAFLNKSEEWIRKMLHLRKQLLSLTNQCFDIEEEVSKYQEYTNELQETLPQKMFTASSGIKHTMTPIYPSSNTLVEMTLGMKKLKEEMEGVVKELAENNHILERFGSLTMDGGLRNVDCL
The experiment in a line: TBK1 protein kinase assay ([γ-33P]ATP, P81 filterplates). It is filed as biochemical. The conditions noted are these: 50 μM ATP; read-out: Potency (TBK1 IC50 potency score). An outline of the steps: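 Human TBK1 assayed for 30 min with peptide substrate (300 μM), 50 μM [γ-33P]ATP and 10 mM magnesium acetate in 50 mM Tris/HCl pH 7.5, 0.1 mM EGTA, 0.1% 2-mercaptoethanol. Stopped with orthophosphoric acid and counted on P81 filters. IC50 from 10 compound concentrations.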

Consider `Cc1cccn(CCCNc2nc(Nc3cccc(F)c3)ncc2C2CC2)c1=O` [Example 111, 1-{3-[5-Cyclopropyl-2-(3-fluoro-phenylamino)-pyrimidin-4-ylamino]-propyl}-3-methyl-H-pyridin-2-one], for which the IC50 was in the range of 100 to 1000 nM. For `CN1CCN(c2cccc(Nc3ncc(C4CC4)c(NCCCNC(=O)C4CCC4)n3)c2)CC1` [Example 91, Cyclobutanecarboxylic acid (3-{5-cyclopropyl-2-[3-(4-methyl-piperazin-1-yl)-phenylamino]-pyrimidin-4-ylamino}-propyl)-amide. Trifluoroacetic acid salt], the half-inhibitory concentration (IC50) is less than 100 nM. Next, `O=C(NCCCNc1nc(Nc2ccc(NCC3CCOCC3)nc2)ncc1C1CC1)C1CCC1` [Example 187]: less than 100 nM; `O=C(NCCCNc1nc(Nc2cccc(NC(=O)N3CCCC3)c2)ncc1C1CC1)c1cccs1` [Example 49, Pyrrolidine-1-carboxylic acid [3-(5-cyclopropyl-4-{3-[(thiophene-2-carbonyl)-amino]-propylamino}-pyrimidin-2-ylamino)-phenyl]-amide]: less than 100 nM. Regarding `O=C(NCCCNc1nc(Nc2ccc3ncnn3c2)ncc1C1CC1)C1CCC1` [Example 189, Cyclobutanecarboxylic acid {3-[5-cyclopropyl-2-([1,2,4]triazolo[1,5-a]pyridin-6-ylamino)-pyrimidin-4-ylamino]-propyl}-amide], the IC50 was less than 100 nM. Consider `Cc1nc2ccc(Nc3ncc(C4CC4)c(NCCCNC(=O)C4CCC4)n3)cc2[nH]1` [Example 209, Cyclobutanecarboxylicacid{3-[5-cyclopropyl-2-(2-methyl-3H-benzimidazol-5-ylamino)-pyrimidin-4-ylamino]-propyl}-amide], for which the 50% inhibitory concentration (IC50) was less than 100 nM.

Take `CN(C)[C@H]1CCN(C(=O)c2cccc(Nc3ncc(C4CC4)c(NCCCNC(=O)C4CCC4)n3)c2)C1` [Example 125, Cyclobutanecarboxylic acid (3-{5-cyclopropyl-2-[3-((S)-3-dimethylamino-pyrrolidine-1-carbonyl)-phenylamino]-pyrimidin-4-ylamino}-propyl)-amide]: the concentration for half-maximal inhibition (IC50) was less than 100 nM. Next, `CN(C)Cc1ccc(Nc2ncc(C3CC3)c(NCCCNC(=O)C3CCC3)n2)cc1` [Example 173, Cyclobutanecarboxylic acid (3-{5-cyclopropyl-2-[4-(2-dimethylamino-methyl)-phenylamino]-pyrimidin-4-ylamino}-propyl)-amide]: less than 100 nM; `CN(C)C(=O)c1ccc(Nc2ncc(C3CC3)c(NCCCNC(=O)C3CCC3)n2)cc1` [Example 180, 4-{4-[3-(Cyclobutanecarbonyl-amino)-propylamino]-5-cyclopropyl-pyrimidin-2-ylamino}-N,N-dimethyl-benzamide]: less than 100 nM; `O=C(NCCCNc1nc(Nc2ccc(CO)nc2)ncc1C1CC1)C1CCC1` [Example 103, Cyclobutanecarboxylic acid {3-[5-cyclopropyl-2-(6-hydroxymethyl-pyridin-3-ylamino)-pyrimidin-4-ylamino]-propyl}-amide]: less than 100 nM. Next, `O=C(NCCCNc1nc(Nc2cccc(F)c2)ncc1C1CC1)c1ccsc1` [Example 17, Thiophene-3-carboxylic acid {3-[5-cyclopropyl-2-(3-fluoro-phenylamino)-pyrimidin-4-ylamino]-propyl}-amide]: less than 100 nM. Next, `O=C(NCCCNc1nc(Nc2ccccc2F)ncc1C1CC1)c1cccs1` [Example 52, Thiophene-2-carboxylic acid {3-[5-cyclopropyl-2-(2-fluoro-phenylamino)-pyrimidin-4-ylamino]-propyl}-amide]: 100 to 1000 nM; `O=C(NCCCNc1nc(Nc2ccc(I)nc2)ncc1C1CC1)C1CCC1` [Example 98, Cyclobutanecarboxylic acid {3-[5-cyclopropyl-2-(6-iodo-pyridin-3-ylamino)-pyrimidin-4-ylamino]-propyl}-amide]: less than 100 nM. With `O=C(NCCCNc1nc(Nc2cccc(F)c2)ncc1C1CC1)C1CCOC1` (centres unmarked) [Example 14, Tetrahydro-furan-3-carboxylic acid {3-[5-cyclopropyl-2-(3-fluoro-phenylamino)-pyrimidin-4-ylamino]-propyl}-amide], the IC50 is less than 100 nM. For `O=C(NCCCNc1nc(Nc2ccc3[nH]nnc3c2)ncc1C1CC1)C1CCC1` [Example 214, Cyclobutanecarboxylicacid{3-[2-(1H-benzotriazol-5-ylamino)-5-cyclopropyl-pyrimidin-4-ylamino]-propyl}-amide], the half-maximal inhibitory concentration (IC50) was less than 100 nM.

On to `CC(C)C(=O)NCCCNc1nc(Nc2cccc(F)c2)ncc1C1CC1` [Example 2, N-{3-[5-Cyclopropyl-2-(3-fluoro-phenylamino)-pyrimidin-4-ylamino]-propyl}-isobutyramide trifluoroacetic acid salt], for which the IC50 was less than 100 nM. Regarding `O=C(NCCCNc1nc(Nc2ccc(F)c(F)c2)ncc1C1CC1)C1CCC1` [Example 85, Cyclobutanecarboxylic acid {3-[5-cyclopropyl-2-(3,4-difluoro-phenylamino)-pyrimidin-4-ylamino]-propyl}-amide], the IC50 was less than 100 nM. As to `O=C(NCCCNc1nc(Nc2cccc(C(F)(F)F)c2)ncc1C1CC1)c1cccs1` [Example 27, Thiophene-2-carboxylic acid {3-[5-cyclopropyl-2-(3-trifluoromethyl-phenylamino)-pyrimidin-4-ylamino]-propyl}-amide], the concentration for half-maximal inhibition (IC50) is 100 to 1000 nM. Under `O=C(CC1CCCC1)NCCCNc1nc(Nc2cccc(F)c2)ncc1C1CC1` [Example 6, 2-Cyclopentyl-N-{3-[5-cyclopropyl-2-(3-fluoro-phenylamino)-pyrimidin-4-ylamino]-propyl}-acetamide trifluoroacetic acid salt] stands less than 100 nM; under `O=C(NCCCNc1nc(Nc2ccc3nccn3c2)ncc1C1CC1)C1CCC1` [Example 186, Cyclobutanecarboxylic acid {3-[5-cyclopropyl-2-(imidazo[1,2-a]pyridin-6-ylamino)-pyrimidin-4-ylamino]-propyl}-amide], less than 100 nM; under `O=C(NCCCNc1nc(Nc2ccc(-n3cncn3)cc2)ncc1C1CC1)C1CCC1` [Example 169, Cyclobutanecarboxylic acid (3-{5-cyclopropyl-2-[4-(2H-1,2,4-triazol-1-yl)-phenylamino]-pyrimidin-4-ylamino}-propyl)-amide], less than 100 nM. Next, `O=C(NCCc1c[nH]cn1)c1cccc(Nc2ncc(C3CC3)c(NCCCNC(=O)C3CCC3)n2)c1` [Example 74, 3-{4-[3-(Cyclobutanecarbonyl-amino)-propylamino]-5-cyclopropyl-pyrimidin-2-ylamino}-N-[2-(1H-imidazol-4-yl)-ethyl]-benzamide]: less than 100 nM. Under `O=C(NCCCNc1nc(Nc2cccc(N3CCNC3=O)c2)ncc1C1CC1)C1CCC1` [Example 140, Cyclobutanecarboxylic acid (3-{5-cyclopropyl-2-[3-(2-oxo-imidazolidin-1-yl)-phenylamino]-pyrimidin-4-ylamino}-propyl)-amide] stands less than 100 nM; under `O=C1CCCCN1CCCNc1nc(Nc2cccc(F)c2)ncc1C1CC1` [Example 110], 100 to 1000 nM. Take `CN(C)CCc1ccc(Nc2ncc(C3CC3)c(NCCCNC(=O)C3CCC3)n2)cc1` [Example 172, Cyclobutanecarboxylic acid (3-{5-cyclopropyl-2-[4-(2-dimethylamino-ethyl)-phenylamino]-pyrimidin-4-ylamino}-propyl)-amide]: the IC50 was less than 100 nM.

Regarding `O=C(NCCCNc1nc(Nc2ccc(CN3CCC(F)(F)CC3)nc2)ncc1C1CC1)C1CCC1` [Example 148, Cyclobutanecarboxylic acid (3-{5-cyclopropyl-2-[6-(4,4-difluoro-piperidin-1-ylmethyl)-pyridin-3-ylamino]-pyrimidin-4-ylamino}-propyl)-amide], the IC50 was less than 100 nM.

With `O=C(NCCCNc1nc(Nc2cccc(-c3nnn[nH]3)c2)ncc1C1CC1)C1CCC1` [Example 94, Cyclobutanecarboxylic acid (3-{5-cyclopropyl-2-[3-(2H-tetrazol-5-yl)-phenylamino]-pyrimidin-4-ylamino}-propyl)-amide], the IC50 lay within 100 to 1000 nM. `CN1CCc2ccc(Nc3ncc(C4CC4)c(NCCCNC(=O)C4CCC4)n3)cc2C1` [Example 197, Cyclobutanecarboxylic acid {3-[5-cyclopropyl-2-(2-methyl-1,2,3,4-tetrahydro-isoquinolin-7-ylamino)-pyrimidin-4-ylamino]-propyl}-amide]: the IC50 was less than 100 nM. Next, `O=C(NCCCNc1nc(Nc2ccc(N3CCN(C4CC4)CC3)nc2)ncc1C1CC1)C1CCC1` [Example 206, Cyclobutanecarboxylic acid (3-{5-cyclopropyl-2-[6-(4-cyclopropyl-piperazin-1-yl)-pyridin-3-ylamino]-pyrimidin-4-ylamino}-propyl)-amide]: less than 100 nM.
